# Laboratory results published in ChEMBL document CHEMBL3232779, “Discovery of a potent stapled helix peptide that binds to the 70N domain of replication protein A” (J Med Chem, 2014).
# Positions of bridges follow the written chain, without caps; N, C: chain ends. Non-standard residues stand in square brackets, D forms with d. Residues, ends and D or L forms follow the SMILES beside them. *: point of attachment. X1 = O=C(O)c1cc(NC(=S)*)ccc1-c1c2ccc(=O)cc-2oc2cc(O)ccc12; Phe(3,4-Cl2) = N[C@@H](Cc1ccc(Cl)c(Cl)c1)C(=O)O; R5 = C=CCCC[C@@](C)(N)C(=O)O
# Biological target: T1, Replication protein A 70 kDa DNA-binding subunit (Homo sapiens, UniProt P27694)
# Test: Binding affinity to recombinant human RPA70 A/B region (181 to 422 amino acids) expressed in Escherichia coli Rosetta by fluorescence polarization anisotropy assay; call rule not given here
# T1 sequence (P27694 whole entry, the tested form may be a part): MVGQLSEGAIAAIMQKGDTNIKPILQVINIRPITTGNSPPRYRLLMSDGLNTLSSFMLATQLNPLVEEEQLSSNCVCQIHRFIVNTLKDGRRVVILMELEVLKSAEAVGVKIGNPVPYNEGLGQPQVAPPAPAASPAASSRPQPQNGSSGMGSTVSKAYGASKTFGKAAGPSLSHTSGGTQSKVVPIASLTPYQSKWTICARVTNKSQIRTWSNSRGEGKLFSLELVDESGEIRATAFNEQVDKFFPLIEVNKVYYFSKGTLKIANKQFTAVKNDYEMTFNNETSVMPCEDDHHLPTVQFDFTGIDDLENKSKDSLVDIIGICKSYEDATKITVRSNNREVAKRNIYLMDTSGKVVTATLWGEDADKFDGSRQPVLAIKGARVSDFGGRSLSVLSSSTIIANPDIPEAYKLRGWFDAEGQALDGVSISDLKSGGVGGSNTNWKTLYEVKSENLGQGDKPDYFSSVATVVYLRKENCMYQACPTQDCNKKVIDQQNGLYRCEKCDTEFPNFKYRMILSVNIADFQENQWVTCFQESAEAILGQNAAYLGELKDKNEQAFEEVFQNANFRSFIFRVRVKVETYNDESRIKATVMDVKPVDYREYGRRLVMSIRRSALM
row,Compound,Kd
1,CC(C)C[C@H](NC(=O)[C@H](C)NC(=O)[C@H](Cc1ccccc1)NC(=O)[C@H](Cc1c[nH]c2ccccc12)NC(=O)[C@@]1(C)CCC/C=C\CCC[C@@](C)(NC(=O)[C@H](C)NC(=O)[C@@H](NC(=O)[C@H](Cc2ccccc2)NC(=O)[C@H](CC(N)=O)NC(=S)Nc2ccc(-c3c4ccc(=O)cc-4oc4cc(O)ccc34)c(C(=O)O)c2)[C@@H](C)O)C(=O)N[C@@H](CC(N)=O)C(=O)N[C@@H](CC(C)C)C(=O)N[C@@H](CCC(=O)O)C(=O)N1)C(=O)O (X1-NFTA[R5]NLE[R5]WFAL-OH; staple (Z) 5-9),12 µM

# Biological target: not listed separately
# Test: Binding affinity to recombinant human RPA70C/32D/14 by fluorescence polarization anisotropy assay
row,Compound,Kd
1,CC(C)C[C@H](NC(=O)[C@H](C)NC(=O)[C@H](Cc1ccccc1)NC(=O)[C@H](Cc1c[nH]c2ccccc12)NC(=O)[C@@]1(C)CCC/C=C\CCC[C@@](C)(NC(=O)[C@H](C)NC(=O)[C@@H](NC(=O)[C@H](Cc2ccccc2)NC(=O)[C@H](CC(N)=O)NC(=S)Nc2ccc(-c3c4ccc(=O)cc-4oc4cc(O)ccc34)c(C(=O)O)c2)[C@@H](C)O)C(=O)N[C@@H](CC(N)=O)C(=O)N[C@@H](CC(C)C)C(=O)N[C@@H](CCC(=O)O)C(=O)N1)C(=O)O (X1-NFTA[R5]NLE[R5]WFAL-OH; staple (Z) 5-9),12 µM

# Test system: U2OS
# Test: Cellular uptake in human U2OS cells after 24 hrs by confocal microscopy
# Assay type: ADME, cell-based
row,Compound,Drug uptake
1,CC(C)C[C@H](NC(=O)[C@H](C)NC(=O)[C@H](Cc1ccccc1)NC(=O)[C@H](Cc1c[nH]c2ccccc12)NC(=O)[C@@]1(C)CCC/C=C\CCC[C@@](C)(NC(=O)[C@H](C)NC(=O)[C@@H](NC(=O)[C@H](Cc2ccccc2)NC(=O)[C@H](CC(=O)O)NC(=S)Nc2ccc(-c3c4ccc(=O)cc-4oc4cc(O)ccc34)c(C(=O)O)c2)[C@@H](C)O)C(=O)N[C@@H](CC(=O)O)C(=O)N[C@@H](CC(C)C)C(=O)N[C@@H](CCC(=O)O)C(=O)N1)C(=O)O (X1-DFTA[R5]DLE[R5]WFAL-OH; staple (Z) 5-9),Not Active
2,CC(C)C[C@H](NC(=O)[C@H](C)NC(=O)[C@H](Cc1ccccc1)NC(=O)[C@H](Cc1c[nH]c2ccccc12)NC(=O)[C@@]1(C)CCC/C=C\CCC[C@@](C)(NC(=O)[C@H](C)NC(=O)[C@@H](NC(=O)[C@H](Cc2ccccc2)NC(=O)[C@H](CC(=O)O)NC(=S)Nc2ccc(-c3c4ccc(=O)cc-4oc4cc(O)ccc34)c(C(=O)O)c2)[C@@H](C)O)C(=O)N[C@@H](CC(N)=O)C(=O)N[C@@H](CC(C)C)C(=O)N[C@@H](CCC(=O)O)C(=O)N1)C(=O)O (X1-DFTA[R5]NLE[R5]WFAL-OH; staple (Z) 5-9),Active
3,CC(C)C[C@H](NC(=O)[C@H](C)NC(=O)[C@H](Cc1ccccc1)NC(=O)[C@H](Cc1c[nH]c2ccccc12)NC(=O)[C@@]1(C)CCC/C=C\CCC[C@@](C)(NC(=O)[C@H](C)NC(=O)[C@@H](NC(=O)[C@H](Cc2ccccc2)NC(=O)[C@H](CC(N)=O)NC(=S)Nc2ccc(-c3c4ccc(=O)cc-4oc4cc(O)ccc34)c(C(=O)O)c2)[C@@H](C)O)C(=O)N[C@@H](CC(N)=O)C(=O)N[C@@H](CC(C)C)C(=O)N[C@@H](CCC(=O)O)C(=O)N1)C(=O)O (X1-NFTA[R5]NLE[R5]WFAL-OH; staple (Z) 5-9),Active

# Biological target: T1, Replication protein A 70 kDa DNA-binding subunit
row,Kd,Compound
1,6.4 µM,CC(C)C[C@H](NC(=O)[C@H](CC(=O)O)NC(=O)[C@H](CC(=O)O)NC(=O)[C@H](C)NC(=O)[C@@H](NC(=O)[C@H](Cc1ccccc1)NC(=O)[C@H](CC(=O)O)NC(=S)Nc1ccc(-c2c3ccc(=O)cc-3oc3cc(O)ccc23)c(C(=O)O)c1)[C@@H](C)O)C(=O)N[C@@H](CCC(=O)O)C(=O)N[C@@H](CCC(=O)O)C(=O)N[C@@H](CC(C)C)C(=O)N[C@@H](CC(=O)O)C(=O)N[C@H](C(=O)N[C@@H](CC(C)C)C(=O)N[C@@H](C)C(=O)N[C@@H](CO)C(N)=O)[C@@H](C)O (X1-DFTADDLEELDTLAS-NH2)
2,0.91 µM,CC(C)C[C@H](NC(=O)[C@H](CC(=O)O)NC(=O)[C@H](CC(=O)O)NC(=O)[C@H](C)NC(=O)[C@@H](NC(=O)[C@H](Cc1ccccc1)NC(=O)[C@H](CC(=O)O)NC(=S)Nc1ccc(-c2c3ccc(=O)cc-3oc3cc(O)ccc23)c(C(=O)O)c1)[C@@H](C)O)C(=O)N[C@@H](CCC(=O)O)C(=O)N[C@@H](CCC(=O)O)C(=O)N[C@@H](Cc1c[nH]c2ccccc12)C(=O)N[C@@H](Cc1ccccc1)C(=O)N[C@@H](C)C(N)=O (X1-DFTADDLEEWFA-NH2)
3,0.33 µM,CC(C)C[C@H](NC(=O)[C@H](C)NC(=O)[C@H](Cc1ccccc1)NC(=O)[C@H](Cc1c[nH]c2ccccc12)NC(=O)[C@H](CCC(=O)O)NC(=O)[C@H](CCC(=O)O)NC(=O)[C@H](CC(C)C)NC(=O)[C@H](CC(=O)O)NC(=O)[C@H](CC(=O)O)NC(=O)[C@H](C)NC(=O)[C@@H](NC(=O)[C@H](Cc1ccccc1)NC(=O)[C@H](CC(=O)O)NC(=S)Nc1ccc(-c2c3ccc(=O)cc-3oc3cc(O)ccc23)c(C(=O)O)c1)[C@@H](C)O)C(N)=O (X1-DFTADDLEEWFAL-NH2)
4,0.58 µM,CC(C)C[C@H](NC(=O)[C@H](C)NC(=O)[C@H](Cc1ccccc1)NC(=O)[C@H](Cc1c[nH]c2ccccc12)NC(=O)[C@H](CCC(=O)O)NC(=O)[C@H](CCC(=O)O)NC(=O)[C@H](CC(C)C)NC(=O)[C@H](CC(=O)O)NC(=O)[C@H](CC(=O)O)NC(=O)[C@H](C)NC(=O)[C@@H](NC(=O)[C@H](Cc1ccccc1)NC(=O)[C@H](CC(=O)O)NC(=S)Nc1ccc(-c2c3ccc(=O)cc-3oc3cc(O)ccc23)c(C(=O)O)c1)[C@@H](C)O)C(=O)N[C@@H](C)C(N)=O (X1-DFTADDLEEWFALA-NH2)
5,21 µM,CC(C)C[C@H](NC(=O)[C@H](C)NC(=O)[C@H](Cc1ccccc1)NC(=O)[C@H](Cc1c[nH]c2ccccc12)NC(=O)[C@H](C)NC(=O)[C@H](CCC(=O)O)NC(=O)[C@H](CC(C)C)NC(=O)[C@H](CC(N)=O)NC(=O)[C@H](C)NC(=O)[C@H](C)NC(=O)[C@@H](NC(=O)[C@H](Cc1ccccc1)NC(=O)[C@H](CC(N)=O)NC(=S)Nc1ccc(-c2c3ccc(=O)cc-3oc3cc(O)ccc23)c(C(=O)O)c1)[C@@H](C)O)C(=O)N[C@@H](C)C(=O)N[C@@H](CO)C(N)=O (X1-NFTAANLEAWFALAS-NH2)
6,152 µM,Ac-AFTADDLEELDTLAS-NH2
7,152 µM,Ac-DFAADDLEELDTLAS-NH2
8,31 µM,Ac-DFTAADLEELDTLAS-NH2
9,225 µM,Ac-DFTADALEELDTLAS-NH2
10,172 µM,Ac-DFTADDAEELDTLAS-NH2
11,20 µM,Ac-DFTADDLAELDALAS-NH2
12,22 µM,Ac-DFTADDLAELDTLAS-OH
13,43 µM,Ac-DFTADDLAEWFTLAS-NH2
14,167 µM,Ac-DFTADDLEALDTLAS-NH2
15,197 µM,Ac-DFTADDLEEADTLAS-NH2
16,85 µM,Ac-DFTADDLEELATLAS-NH2
17,17 µM,Ac-DFTADDLEELDALAS-NH2
18,63 µM,Ac-DFTADDLEELDTAAS-NH2
19,26 µM,Ac-DFTADDLEELDTLAA-NH2
20,22 µM,Ac-DFTADDLEELFTLAS-NH2
21,138 µM,Ac-DFTADDLEEWDTLAS-NH2
22,2.7 µM,Ac-DFTADDLEEWFTLAS-NH2

row,Compound,Kd
1,"CC(C)C[C@H](NC(=O)[C@H](C)NC(=O)[C@H](Cc1ccc(Cl)c(Cl)c1)NC(=O)[C@H](Cc1c[nH]c2ccccc12)NC(=O)[C@H](CCC(=O)O)NC(=O)[C@H](CCC(=O)O)NC(=O)[C@H](CC(C)C)NC(=O)[C@H](CC(=O)O)NC(=O)[C@H](CC(=O)O)NC(=O)[C@H](C)NC(=O)[C@@H](NC(=O)[C@H](Cc1ccccc1)NC(=O)[C@H](CC(=O)O)NC(=S)Nc1ccc(-c2c3ccc(=O)cc-3oc3cc(O)ccc23)c(C(=O)O)c1)[C@@H](C)O)C(N)=O (X1-DFTADDLEEW[Phe(3,4-Cl2)]AL-NH2)",0.022 µM
2,CC(C)C[C@H](NC(=O)[C@H](C)NC(=O)[C@H](Cc1ccccc1)NC(=O)[C@H](Cc1c[nH]c2ccccc12)NC(=O)[C@@]1(C)CCC/C=C\CCC[C@@](C)(NC(=O)[C@H](C)NC(=O)[C@@H](NC(=O)[C@H](Cc2ccccc2)NC(=O)[C@H](CC(=O)O)NC(=S)Nc2ccc(-c3c4ccc(=O)cc-4oc4cc(O)ccc34)c(C(=O)O)c2)[C@@H](C)O)C(=O)N[C@@H](CC(=O)O)C(=O)N[C@@H](CC(C)C)C(=O)N[C@@H](CCC(=O)O)C(=O)N1)C(=O)O (X1-DFTA[R5]DLE[R5]WFAL-OH; staple (Z) 5-9),0.57 µM
3,CC(C)C[C@H](NC(=O)[C@H](C)NC(=O)[C@H](Cc1ccccc1)NC(=O)[C@H](Cc1c[nH]c2ccccc12)NC(=O)[C@@]1(C)CCC/C=C\CCC[C@@](C)(NC(=O)[C@H](C)NC(=O)[C@@H](NC(=O)[C@H](Cc2ccccc2)NC(=O)[C@H](CC(=O)O)NC(=S)Nc2ccc(-c3c4ccc(=O)cc-4oc4cc(O)ccc34)c(C(=O)O)c2)[C@@H](C)O)C(=O)N[C@@H](CC(N)=O)C(=O)N[C@@H](CC(C)C)C(=O)N[C@@H](CCC(=O)O)C(=O)N1)C(=O)O (X1-DFTA[R5]NLE[R5]WFAL-OH; staple (Z) 5-9),3.7 µM
4,CC(C)C[C@H](NC(=O)[C@H](C)NC(=O)[C@H](Cc1ccccc1)NC(=O)[C@H](Cc1c[nH]c2ccccc12)NC(=O)[C@@]1(C)CCC/C=C\CCC[C@@](C)(NC(=O)[C@H](C)NC(=O)[C@@H](NC(=O)[C@H](Cc2ccccc2)NC(=O)[C@H](CC(N)=O)NC(=S)Nc2ccc(-c3c4ccc(=O)cc-4oc4cc(O)ccc34)c(C(=O)O)c2)[C@@H](C)O)C(=O)N[C@@H](CC(=O)O)C(=O)N[C@@H](CC(C)C)C(=O)N[C@@H](CCC(=O)O)C(=O)N1)C(=O)O (X1-NFTA[R5]DLE[R5]WFAL-OH; staple (Z) 5-9),1.5 µM
5,"CC(C)C[C@H](NC(=O)[C@H](C)NC(=O)[C@H](Cc1ccc(Cl)c(Cl)c1)NC(=O)[C@H](Cc1c[nH]c2ccccc12)NC(=O)[C@@]1(C)CCC/C=C\CCC[C@@](C)(NC(=O)[C@H](C)NC(=O)[C@@H](NC(=O)[C@H](Cc2ccccc2)NC(=O)[C@H](CC(N)=O)NC(=S)Nc2ccc(-c3c4ccc(=O)cc-4oc4cc(O)ccc34)c(C(=O)O)c2)[C@@H](C)O)C(=O)N[C@@H](CC(=O)O)C(=O)N[C@@H](CC(C)C)C(=O)N[C@@H](CCC(=O)O)C(=O)N1)C(=O)O (X1-NFTA[R5]DLE[R5]W[Phe(3,4-Cl2)]AL-OH; staple (Z) 5-9)",0.048 µM
6,CC(C)C[C@H](NC(=O)[C@H](C)NC(=O)[C@H](Cc1ccccc1)NC(=O)[C@H](Cc1c[nH]c2ccccc12)NC(=O)[C@@]1(C)CCC/C=C\CCC[C@@](C)(NC(=O)[C@H](C)NC(=O)[C@@H](NC(=O)[C@H](Cc2ccccc2)NC(=O)[C@H](CC(N)=O)NC(=S)Nc2ccc(-c3c4ccc(=O)cc-4oc4cc(O)ccc34)c(C(=O)O)c2)[C@@H](C)O)C(=O)N[C@@H](CC(N)=O)C(=O)N[C@@H](CC(C)C)C(=O)N[C@@H](CCC(=O)O)C(=O)N1)C(=O)O (X1-NFTA[R5]NLE[R5]WFAL-OH; staple (Z) 5-9),7.4 µM
7,Ac-DFTAADLEEWFALAS-NH2,2.3 µM
8,Ac-DFTADALEEWFALAS-NH2,28 µM
9,Ac-DFTADDLAEWFALAS-NH2,28 µM
10,Ac-DFTADDLEAWFALAS-NH2,2.4 µM
11,Ac-DFTADDLEEWFALAS-NH2,1.2 µM
12,Ac-DFTADDLEQWFALAS-NH2,2.6 µM
13,Ac-DFTADNLEEWFALAS-NH2,6.9 µM
14,Ac-DFTANDLEEWFALAS-NH2,19 µM
15,Ac-NFTADDLEEWFALAS-NH2,5.8 µM
